Source: US9625458B2, “Biosensor” (priority 2002, dated 2017)

Experiments:
[1] = molecular target: E. coli histidine binding protein (HBP, SEQ ID NO:2), fluorophore-conjugated cysteine mutants (Escherichia coli, UniProt P0AEU0); conditions: read-out: range of Kd; range over conjugates, n=4
Source text: Molecular Cloning. […] Amplified products were cloned into one of the protein expression vectors pAED4 (Doering, “Functional and structural studies of a small f-actin binding domain” in Ph.D. thesis, Massachusetts Institute of Technology, 1992); pKK223-3 (Brosius & Holy, Proc. Natl. Acad. Sci. USA 81:6929-6933, 1984); or pET vectors (Studier et al., Meth. Enzymol. 185:60-89, 1990) (Novagen). N-terminal oligonucleotide primers were designed to clone only the processed periplasmic form, deleting the signal sequence. The C-terminal primer was designed to append the sequence Gly-Ser-Gly-(His)n or Gly-Ser-(His)n, where n=5, 6, or 10. Two tandem stop codons (TAATGA) follow the last His codon. […] Additionally the sequence of Fe(III) BP was mutated by substitution of Glu57 with Asp to raise the Kd to a concentration range conveniently measured using Fe(III) citrate.
Fluorophore conjugation to cysteine-substituted bPBPs. […] The efficiency of reporter group attachment was assessed by determination of unreacted thiol with Ellman's reagent (Ellman, Arch. Biochem. Biophys. 74:443-450, 1958) or by measuring the ratio of fluorophore to protein from absorbance spectra of the purified conjugate.
Fluorimetry. […] Fluorescence emission spectra were acquired with excitation and emission slit widths of 4 and 8 nm, respectively. […]

[2] = molecular target: E. coli histidine binding protein (SEQ ID NO:2) variant V163C, fluorophore conjugate (Escherichia coli, UniProt P0AEU0, V185C); assay: biochemical
Source text: (§1) Molecular Cloning. […] Amplified products were cloned into one of the protein expression vectors pAED4 (Doering, “Functional and structural studies of a small f-actin binding domain” in Ph.D. thesis, Massachusetts Institute of Technology, 1992); pKK223-3 (Brosius & Holy, Proc. Natl. Acad. Sci. USA 81:6929-6933, 1984); or pET vectors (Studier et al., Meth. Enzymol. 185:60-89, 1990) (Novagen). N-terminal oligonucleotide primers were designed to clone only the processed periplasmic form, deleting the signal sequence. The C-terminal primer was designed to append the sequence Gly-Ser-Gly-(His)n or Gly-Ser-(His)n, where n=5, 6, or 10. Two tandem stop codons (TAATGA) follow the last His codon. […] Single amino acid substitutions were generated by overlapping PCR mutagenesis (Ho et al., Gene 77:51-59, 1989). All clones and mutations were confirmed by nucleotide sequencing. In the case of arabinose BP, the single cysteine in the wild type sequence was replaced by alanine to eliminate the possibility of reporter group conjugation to this thiol (Miller et al., J. Biol. Chem. 254:7521-7528, 1979). Additionally the sequence of Fe(III) BP was mutated by substitution of Glu57 with Asp to raise the Kd to a concentration range conveniently measured using Fe(III) citrate.
(§2) Fluorophore conjugation to cysteine-substituted bPBPs. Thiol-reactive fluorophores obtained from Molecular Probes (Eugene, Oreg.) were 5-iodoacetamidofluorescein (fluorescein); N-(1-pyrene) iodoacetamide (pyrene); N,N′-dimethyl-N-(iodoacetyl)-N′-(7-nitrobenz-2-oxa-1,3-diazol-4-yl)ethylenediamide (NBD); N-((2-(iodoacetoxy)ethyl)-N-methyl)amino-7-nitrobenz-2-oxa-1,3-diazole (NBDE); and 6-acryloyl-2-dimethylaminonaphthalene (acrylodan). The styryl and naphthyl dyes JPW4039, JPW4042, and JPW4045 (FIG. 3) were synthesized at the University of Connecticut. All fluorophore conjugation steps were typically carried out at room temperature. To protein at a concentration of 100 μM was added tris-(2-carboxyethyl)phosphine HCl to a five-fold molar excess to reduce intermolecular disulfide bonds. A thiol-reactive fluorophore (20 to 25 mM in acetonitrile or dimethyl sulfoxide) was added in small aliquots to a five-fold molar excess over protein. Conjugation proceeded in the dark at room temperature for 4 hours, or overnight at 4° C. Separation of protein from unreacted fluorophore was achieved by exhaustive dialysis or by size-exclusion chromatography. The efficiency of reporter group attachment was assessed by determination of unreacted thiol with Ellman's reagent (Ellman, Arch. Biochem. Biophys. 74:443-450, 1958) or by measuring the ratio of fluorophore to protein from absorbance spectra of the purified conjugate.
(§3) Fluorimetry. All measurements were conducted with an SLM Aminco-Bowman series 2 fluorimeter, with sample stirring at 25° C. Fluorescence emission spectra were acquired with excitation and emission slit widths of 4 and 8 nm, respectively. Photomultiplier tube potential was maintained between 400 and 800 volts. Protein concentrations were in the range of 50 to 1000 nM. […]
(§4) Analyte affinity measurements. […] The emission wavelength monitored was that of maximum difference in intensity between the ligand-free and bound states. For each conjugate, fluorescence intensiometric observations were fit to a hyperbolic binding isotherm for a two-state model (Marvin et al., Proc. Natl. Acad. Sci. USA 94:4366-4371, 1997): […]

[3] = molecular target: E. coli histidine binding protein (SEQ ID NO:2) variant E167C, fluorophore conjugate (Escherichia coli, UniProt P0AEU0, E189C); assay: biochemical
Source text: as §1, §2, §3, §4

[4] = molecular target: T1, E. coli arabinose binding protein variant C64A/L253C, fluorophore conjugate (Escherichia coli, UniProt P02924, C87A/L276C); assay: Fluorimetric titration of fluorophore conjugates
T1 construct: initiator methionine (N); Gly-Ser-Gly-(His)n or Gly-Ser-(His)n (n = 5, 6 or 10) (C); made in house; host or cells: E. coli BL21-DE3
Source text: as §1, §2
(§5) Fluorimetry. All measurements were conducted with an SLM Aminco-Bowman series 2 fluorimeter, with sample stirring at 25° C. Fluorescence emission spectra were acquired with excitation and emission slit widths of 4 and 8 nm, respectively. Photomultiplier tube potential was maintained between 400 and 800 volts. Protein concentrations were in the range of 50 to 1000 nM. Fluorophore-specific excitation was at the following approximate wavelengths: tryptophan, 290 nm; acrylodan, 390 nm; fluorescein, 485 nm; pyrene, 340 nm; NBD and NBDE, 490 nm; JPW4039, 485 nm; JPW4042, 470 nm; JPW4045, 470 nm.
(§6) Corrections were made for dilution of the protein and for background signal from buffer. Binding curves were fit to binding isotherms using equation 3 or 4, as appropriate.
as §4

[5] = molecular target: T2, E. coli arabinose binding protein variant C64A/F23C, fluorophore conjugate (Escherichia coli, UniProt P02924, C87A/F46C); assay: Fluorimetric titration of fluorophore conjugates; conditions: allosteric site
T2 construct: initiator methionine (N); Gly-Ser-Gly-(His)n or Gly-Ser-(His)n (n = 5, 6 or 10) (C); made in house; host or cells: E. coli BL21-DE3
Source text: as §1, §2, §5, §6, §4

[6] = molecular target: T3, E. coli arabinose binding protein variant C64A/D257C, fluorophore conjugate (Escherichia coli, UniProt P02924, C87A/D280C); assay: Fluorimetric titration of fluorophore conjugates; conditions: allosteric site
T3 construct: initiator methionine (N); Gly-Ser-Gly-(His)n or Gly-Ser-(His)n (n = 5, 6 or 10) (C); made in house; host or cells: E. coli BL21-DE3
Source text: as §1, §2, §5, §6, §4

[7] = molecular target: T4, E. coli arabinose binding protein variant C64A/K301C, fluorophore conjugate (Escherichia coli, UniProt P02924, C87A/K324C); assay: Fluorimetric titration of fluorophore conjugates
T4 construct: initiator methionine (N); Gly-Ser-Gly-(His)n or Gly-Ser-(His)n (n = 5, 6 or 10) (C); made in house; host or cells: E. coli BL21-DE3
Source text: as §1, §2, §5, §6, §4

[8] = molecular target: T5, E. coli arabinose binding protein variant C64A/L298C, fluorophore conjugate (Escherichia coli, UniProt P02924, C87A/L321C); assay: Fluorimetric titration of fluorophore conjugates; conditions: allosteric site
T5 construct: initiator methionine (N); Gly-Ser-Gly-(His)n or Gly-Ser-(His)n (n = 5, 6 or 10) (C); made in house; host or cells: E. coli BL21-DE3
Source text: as §1, §2, §5, §6, §4

[9] = molecular target: T6, E. coli arabinose binding protein C64A mutant (Escherichia coli, UniProt P02924, C87A); assay: Arabinose affinity of unconjugated arabinose BP C64A
T6 construct: initiator methionine (N); Gly-Ser-Gly-(His)n or Gly-Ser-(His)n (n = 5, 6 or 10) (C); made in house; host or cells: E. coli BL21-DE3
Source text: (§7) Molecular Cloning. […] All clones and mutations were confirmed by nucleotide sequencing.
(§8) Cysteine point mutations were introduced by the PCR overlap method (Ho et al., Gene 77:51-59, 1989). Mutant proteins typically expressed as well as the wild type protein. […] In the case of Fe(III) BP, all mutations were constructed in the E57D background. […] This permitted straightforward determination of Fe(III) affinity by direct titration with Fe(III) citrate at nanomolar concentrations of Fe(III) BP.
(§9) The effect on dissociation constants is determined not only by the attachment site, but also by the nature of the attached fluorophore, as illustrated for arabinose BP. Dissociation constants for arabinose of the five cysteine-substitution mutants (all with the C64A mutation), measured by tryptophan fluorescence, are 5.0 μM (F23C), 3.2 μM (L253C), 3.4 μM (D257C), 7.6 μM (L298C), and 1.6 μM (K301C).

[10] = molecular target: T7, E. coli arabinose binding protein variant C64A/L298C (Escherichia coli, UniProt P02924, C87A/L321C); assay: Arabinose affinity by tryptophan fluorescence
T7 construct: initiator methionine (N); Gly-Ser-Gly-(His)n or Gly-Ser-(His)n (n = 5, 6 or 10) (C); made in house; host or cells: E. coli BL21-DE3
Source text: as §7, §8, §9

[11] = molecular target: T8, E. coli arabinose binding protein variant C64A/D257C (Escherichia coli, UniProt P02924, C87A/D280C); assay: Arabinose affinity by tryptophan fluorescence
T8 construct: initiator methionine (N); Gly-Ser-Gly-(His)n or Gly-Ser-(His)n (n = 5, 6 or 10) (C); made in house; host or cells: E. coli BL21-DE3
Source text: as §7, §8, §9

[12] = molecular target: T9, E. coli arabinose binding protein variant C64A/F23C (Escherichia coli, UniProt P02924, C87A/F46C); assay: Arabinose affinity by tryptophan fluorescence
T9 construct: initiator methionine (N); Gly-Ser-Gly-(His)n or Gly-Ser-(His)n (n = 5, 6 or 10) (C); made in house; host or cells: E. coli BL21-DE3
Source text: as §7, §8, §9

[13] = molecular target: T10, E. coli arabinose binding protein variant C64A/K301C (Escherichia coli, UniProt P02924, C87A/K324C); assay: Arabinose affinity by tryptophan fluorescence
T10 construct: initiator methionine (N); Gly-Ser-Gly-(His)n or Gly-Ser-(His)n (n = 5, 6 or 10) (C); made in house; host or cells: E. coli BL21-DE3
Source text: as §7, §8, §9

[14] = molecular target: T11, E. coli arabinose binding protein variant C64A/L253C (Escherichia coli, UniProt P02924, C87A/L276C); assay: Arabinose affinity by tryptophan fluorescence
T11 construct: initiator methionine (N); Gly-Ser-Gly-(His)n or Gly-Ser-(His)n (n = 5, 6 or 10) (C); made in house; host or cells: E. coli BL21-DE3
Source text: as §7, §8, §9

[15] = Acrylodan conjugate, allosteric site
[16] = JPW4039 conjugate, allosteric site

SMILES: N[C@@H](Cc1c[nH]cn1)C(=O)O [histidine]
- Kd [1]: 0.06 to 2.37 µM
- Kd ([2]; Acrylodan conjugate, peristeric site): 0.4 µM
- Kd ([2]; JPW4042 conjugate, peristeric site): 0.25 µM
- Kd ([2]; NBD conjugate, peristeric site): 2.37 µM
- Kd ([2]; V163C-JPW4042): 0.25 µM
- Kd [3]: 0.06 µM

SMILES: OC1OC[C@H](O)[C@H](O)[C@H]1O (some centres unmarked) [arabinose]
- Kd [4, 15]: 0.69 µM
- Kd ([4]; Fluoresecin conjugate, allosteric site): 48 µM
- Kd [4, 16]: 165 µM
- Kd ([4]; L253C-NBD conjugate): 775 µM
- Kd ([4]; L253C-acrylodan conjugate): 0.7 µM
- Kd ([4]; L253C-fluorescein conjugate): ~48 µM
- Kd ([4]; NBD conjugate, allosteric site): 775 µM
- Kd ([5]; Acrylodan conjugate): 3.9 µM
- Kd ([5]; Fluorescein conjugate): 3.2 µM
- Kd ([5]; JPW4039 conjugate): 38 µM
- Kd ([5]; NBD conjugate): 5 µM
- Kd ([6]; Acrylodan conjugate): 56 µM
- Kd ([6]; Fluorescein conjugate): 4 µM
- Kd ([6]; JPW4039 conjugate): 90 µM
- Kd ([6]; NBD conjugate): 32 µM
- Kd [7, 15]: 0.46 µM
- Kd ([7]; Fluorescein conjugate, allosteric site): 24 µM
- Kd [7, 16]: 77 µM
- Kd ([7]; K301C-NBD conjugate): ~31 µM
- Kd ([7]; NBD conjugate, allosteric site): 31 µM
- Kd ([8]; Acrylodan conjugate): 44 µM
- Kd ([8]; JPW4039 conjugate): 70 µM
- Kd ([8]; NBD conjugate): 56 µM
- Kd [9]: ~2.2 µM
- Kd [10]: 7.6 µM
- Kd [11]: 3.4 µM
- Kd [12]: 5 µM
- Kd [13]: 1.6 µM
- Kd [14]: 3.2 µM
